According to patent US7223835B2, “VEGF peptides and their use for inhibiting angiogenesis” (Ark Therapeutics Ltd., priority 2000, dated 2007):

Tested on: human endothelial cell-derived tubule formation
Assay: In vitro angiogenesis assay, endothelial cell-derived tubule formation in co-culture with human fibroblasts
Format: cell-based
Conditions: tubule formation at day 11, CD31 immunostaining, with and without VEGF; FIG. 4
Experimental: An in vitro angiogenesis assay based on human endothelial cell-derived tubule formation (TCS Biologicals) in a co-culture with human fibroblasts was used to investigate the effects of selected peptides on angiogenesis. The peptides, together with VEGF and other factors were added at the start of the experiment and at each medium change at days 4, 7 and 9. At day 11, the cultures were fixed with 70% ethanol for 30 min at room temperature and subsequently subjected to immunostaining for the endothelial cell adhesion molecule CD31. Fixed cells were incubated with the primary antibody (mouse anti-human CD31) for 1 h at 37° C., washed 3 times in blocking buffer (PBS containing 1% BSA), and then incubated with the secondary antibody (goat anti-mouse IgG conjugated to alkaline phosphatase) for 1 h at 37° C. After 3 washes in distilled water, the cells were finally incubated with the substrate solution for 10 min at 37° C. Immunostaining was observed and photographed using an inverted Zeiss microscope (Axiovert CFL25) fitted with a ×4 objective lens. […] A, VEGF released from untreated control during 11 days, measured by specific immunoassay; B, untreated control; C, VEGF; D, peptide 121–132; E, VEGF in the presence of peptide 121–132; F, peptide 125–136; and G, VEGF in the presence of peptide 125–136.

## RKRKKSR [SEQ ID NO:21, 7-mer truncated derivative of the 12-mer V125–136 protein]
  inhibition of angiogenesis (Chalkley count), potency compared with the 12-mer: inhibits angiogenesis with similar potency to the 12-mer
